In ChEMBL document CHEMBL1201862, “PubChem BioAssay data set” (2004):
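Interpolation was linear, between the two tested concentrations surrounding the appropriate level; five concentrations were tested over 48 hours in 96-well plates. Here, GI50 denotes the concentration required for 50% inhibition of growth.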 Calls of active or inactive are those of the source. Rule as the data show it: active = GI50 up to about 1.1 µM and inactive = higher.

Assays:
Assay in all cases: NCI tumour cell line growth inhibition, 48 h
786-0 = tested on: 786-0
A498 = tested on: A498
BT-549 = tested on: BT-549
HCC 2998 = tested on: HCC 2998
HCT-116 = tested on: HCT-116
HCT-15 = tested on: HCT-15
HOP-62 = tested on: HOP-62
Hs-578T = tested on: Hs-578T
M14 = tested on: M14
MCF7 = tested on: MCF7
MDA-MB-435 = tested on: MDA-MB-435
NCI-H23 = tested on: NCI-H23
NCI-H460 = tested on: NCI-H460
PC-3 = tested on: PC-3
SF-268 = tested on: SF-268
SK-MEL-2 = tested on: SK-MEL-2
SNB-75 = tested on: SNB-75
SW-620 = tested on: SW-620
U-251 = tested on: U-251
UO-31 = tested on: UO-31

| Structure (SMILES) | GI50 (786-0) | GI50 (A498) | GI50 (BT-549) | GI50 (HCC 2998) | GI50 (HCT-116) | GI50 (HCT-15) [µM] | GI50 (HOP-62) | GI50 (Hs-578T) | GI50 (M14) | GI50 (MCF7) | GI50 (MDA-MB-435) | GI50 (NCI-H23) | GI50 (NCI-H460) | GI50 (PC-3) | GI50 (SF-268) | GI50 (SK-MEL-2) | GI50 (SNB-75) | GI50 (SW-620) | GI50 (U-251) | GI50 (UO-31) |
| --- | --- | --- | --- | --- | --- | --- | --- | --- | --- | --- | --- | --- | --- | --- | --- | --- | --- | --- | --- | --- |
| CCOC(=O)/C=C(/C(=O)OCC)n1c(=O)c(C)cn(C2CC(N=[N+]=[N-])C(CO)O2)c1=O (stereo not given) | 25.4 µM (inactive) | 44.1 µM (inactive) | 48.6 µM (inactive) | 16.4 µM (inactive) | 37.2 µM (inactive) | 29.7 | 59.7 µM (inactive) | 51.2 µM (inactive) | 26.4 µM (inactive) | 19.8 µM (inactive) | 29.6 µM (inactive) | 34 µM (inactive) | 47.4 µM (inactive) | 13.5 µM (inactive) | 44.8 µM (inactive) | 19.5 µM (inactive) | 56.9 µM (inactive) | 17 µM (inactive) | 18 µM (inactive) | 46.6 µM (inactive) |
| CCOC(=O)NC(Nc1cccc(C(F)(F)F)c1)(C(F)(F)F)C(F)(F)F | > 100 µM (inactive) | > 100 µM (inactive) | > 100 µM (inactive) | > 100 µM (inactive) | > 100 µM (inactive) | > 100 | > 100 µM (inactive) | > 100 µM (inactive) | > 100 µM (inactive) | > 100 µM (inactive) | > 100 µM (inactive) | > 100 µM (inactive) | > 100 µM (inactive) | > 100 µM (inactive) | > 100 µM (inactive) | > 100 µM (inactive) | > 100 µM (inactive) | > 100 µM (inactive) | > 100 µM (inactive) | 93.8 µM (inactive) |
| COc1ccc(-n2cnc3c(NC(C)(C)C(=O)O)ncnc32)cc1 | > 100 µM (inactive) | > 100 µM (inactive) | > 100 µM (inactive) | > 100 µM (inactive) | > 100 µM (inactive) | > 100 | > 100 µM (inactive) | > 100 µM (inactive) | > 100 µM (inactive) | > 100 µM (inactive) | > 100 µM (inactive) | > 100 µM (inactive) | > 100 µM (inactive) | > 100 µM (inactive) | > 100 µM (inactive) | > 100 µM (inactive) | > 100 µM (inactive) | > 100 µM (inactive) | > 100 µM (inactive) | > 100 µM (inactive) |
| Cc1ccc(C(=O)/C=C(O)/C(O)=C/C(=O)c2ccc(C)cc2C)c(C)c1 | 2.03 µM (inactive) | 2.04 µM (inactive) | 1.64 µM (inactive) | 1.92 µM (inactive) | 2.32 µM (inactive) | 2 | 1.58 µM (inactive) | 2.21 µM (inactive) | 1.93 µM (inactive) | 2.02 µM (inactive) | 2.01 µM (inactive) | 1.65 µM (inactive) | 1.71 µM (inactive) | 2.31 µM (inactive) | 1.91 µM (inactive) | 1.87 µM (inactive) | 1.95 µM (inactive) | 2.37 µM (inactive) | 1.75 µM (inactive) | 1.36 µM (inactive) |
| CC(C)(Oc1ccc(Cl)cc1)C(=O)N(C(=O)N1CCN(c2ccccc2)CC1)c1ccccc1 | 28.4 µM (inactive) | 84.9 µM (inactive) | > 100 µM (inactive) | 92.5 µM (inactive) | 4.06 µM (inactive) | 6.61 | > 100 µM (inactive) | > 100 µM (inactive) | 45.7 µM (inactive) | 8.59 µM (inactive) | 16.2 µM (inactive) | 8.83 µM (inactive) | 3.75 µM (inactive) | 4.78 µM (inactive) | > 100 µM (inactive) | > 100 µM (inactive) | > 100 µM (inactive) | 8.93 µM (inactive) | 6.21 µM (inactive) | 11.7 µM (inactive) |
| O=C(NCCc1ccccn1)c1ccc2cc(C(=O)N3CC(CCl)c4ccc([N+](=O)[O-])cc43)[nH]c2c1 (stereo not given) | 9.64 µM (inactive) | > 57.7 µM (inactive) | > 100 µM (inactive) | 61.5 µM (inactive) | > 70.3 µM (inactive) | 77.4 | 13.2 µM (inactive) | 94.6 µM (inactive) | > 100 µM (inactive) | > 67.9 µM (inactive) | > 100 µM (inactive) | 45.3 µM (inactive) | 22.7 µM (inactive) | 44.6 µM (inactive) | 7.1 µM (inactive) | > 100 µM (inactive) | 18.8 µM (inactive) | > 100 µM (inactive) | 18.5 µM (inactive) | > 49.8 µM (inactive) |
| CC(=O)N1c2ccccc2C(C)C1c1[nH]c2ccccc2c1C (stereo not given) | 19.9 µM (inactive) | 22.7 µM (inactive) | 22.5 µM (inactive) | 16.3 µM (inactive) | 16.5 µM (inactive) | 27.2 | 19.2 µM (inactive) | 16.6 µM (inactive) | 18.7 µM (inactive) | 28.1 µM (inactive) | 18.2 µM (inactive) | 23.8 µM (inactive) | 19.3 µM (inactive) | 31.3 µM (inactive) | 23.4 µM (inactive) | 17.7 µM (inactive) | 19.8 µM (inactive) | 27.5 µM (inactive) | 20.5 µM (inactive) | 17.2 µM (inactive) |
